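Assay format: 96-well plates, 48-hour exposure. GI50 is the concentration that inhibits growth by half.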 Active and inactive are the calls of the source. No stated cut-off is given here; in the data, active = GI50 up to about 1.1 µM and inactive = higher.
What was measured:
Experiment in all cases: inhibition of tumour cell growth, NCI panel, 48 h
SK-MEL-28 = system: SK-MEL-28
NCI-H23 = system: NCI-H23
RXF 393 = system: RXF 393
COLO 205 = system: COLO 205
SNB-78 = system: SNB-78
HT-29 = system: HT-29
UACC-257 = system: UACC-257
CCRF-CEM = system: CCRF-CEM
XF498 = system: XF498
U-251 = system: U-251
DLD-1 = system: DLD-1
SK-MEL-2 = system: SK-MEL-2
A498 = system: A498
HOP-62 = system: HOP-62
M14 = system: M14
RPMI-8226 = system: RPMI-8226
LXFL 529 = system: LXFL 529
DMS-114 = system: DMS-114
SN12C = system: SN12C
NCI-H522 = system: NCI-H522
K562 = system: K562
RXF 631 = system: RXF 631
KM12 = system: KM12
UO-31 = system: UO-31
SNB-19 = system: SNB-19
SNB-75 = system: SNB-75
SK-MEL-5 = system: SK-MEL-5
Malme-3M = system: Malme-3M
CAKI-1 = system: CAKI-1
OVCAR-5 = system: OVCAR-5
HOP-92 = system: HOP-92
ACHN = system: ACHN
LOX IMVI = system: LOX IMVI
SF-295 = system: SF-295
SF-539 = system: SF-539
OVCAR-8 = system: OVCAR-8
M19-MEL = system: M19-MEL
786-0 = system: 786-0
MOLT-4 = system: MOLT-4
EKVX = system: EKVX
IGROV-1 = system: IGROV-1
OVCAR-4 = system: OVCAR-4
HCT-15 = system: HCT-15
HOP-18 = system: HOP-18
HL-60 = system: HL-60
TK-10 = system: TK-10
DMS-273 = system: DMS-273
HCC 2998 = system: HCC 2998
OVCAR-3 = system: OVCAR-3
A549 = system: A549
UACC-62 = system: UACC-62
NCI-H226 = system: NCI-H226
SF-268 = system: SF-268
SK-OV-3 = system: SK-OV-3
SW-620 = system: SW-620
NCI-H460 = system: NCI-H460
SR = system: SR
KM-20L2 = system: KM-20L2
HCT-116 = system: HCT-116

c1ccc(/N=c2\snc3scc(-c4ccccc4)n23)cc1
GI50 (SK-MEL-28): 41 µM (inactive) | GI50 (NCI-H23): 36.6 µM (inactive) | GI50 (RXF 393): 46.2 µM (inactive) | GI50 (COLO 205): 31.5 µM (inactive) | GI50 (SNB-78): 57.3 µM (inactive) | GI50 (HT-29): 50.5 µM (inactive) | GI50 (UACC-257): 32.5 µM (inactive) | GI50 (CCRF-CEM): 43.8 µM (inactive) | GI50 (XF498): 32.1 µM (inactive) | GI50 (U-251): 26.8 µM (inactive) | GI50 (DLD-1): 36.9 µM (inactive) | GI50 (SK-MEL-2): 34.8 µM (inactive) | GI50 (A498): > 100 µM (inactive) | GI50 (HOP-62): 30.5 µM (inactive) | GI50 (M14): 33 µM (inactive) | GI50 (RPMI-8226): 28.7 µM (inactive) | GI50 (LXFL 529): 33.5 µM (inactive) | GI50 (DMS-114): 30.3 µM (inactive) | GI50 (SN12C): 44.6 µM (inactive) | GI50 (NCI-H522): 18.7 µM (inactive) | GI50 (K562): 52.6 µM (inactive) | GI50 (RXF 631): 66.8 µM (inactive) | GI50 (KM12): 36.5 µM (inactive) | GI50 (UO-31): 27.6 µM (inactive) | GI50 (SNB-19): 39.2 µM (inactive) | GI50 (SNB-75): > 100 µM (inactive) | GI50 (SK-MEL-5): 24.5 µM (inactive) | GI50 (Malme-3M): 31.6 µM (inactive) | GI50 (CAKI-1): 49.5 µM (inactive) | GI50 (OVCAR-5): > 100 µM (inactive) | GI50 (HOP-92): 34.2 µM (inactive) | GI50 (ACHN): 48 µM (inactive) | GI50 (LOX IMVI): 34.4 µM (inactive) | GI50 (SF-295): 37.5 µM (inactive) | GI50 (SF-539): 37.4 µM (inactive) | GI50 (OVCAR-8): 48.6 µM (inactive) | GI50 (M19-MEL): 32.3 µM (inactive) | GI50 (786-0): 50.5 µM (inactive) | GI50 (MOLT-4): 29.3 µM (inactive) | GI50 (EKVX): 90.2 µM (inactive) | GI50 (IGROV-1): 41.8 µM (inactive) | GI50 (OVCAR-4): 39.6 µM (inactive) | GI50 (HCT-15): 41.6 µM | GI50 (HOP-18): 24.8 µM (inactive) | GI50 (HL-60): 40.6 µM (inactive) | GI50 (TK-10): 66.2 µM (inactive) | GI50 (DMS-273): 38.8 µM (inactive) | GI50 (HCC 2998): 44.1 µM (inactive) | GI50 (OVCAR-3): 22.8 µM (inactive) | GI50 (A549): 37.5 µM (inactive) | GI50 (UACC-62): 30.1 µM (inactive) | GI50 (NCI-H226): 26.7 µM (inactive) | GI50 (SF-268): 50.1 µM (inactive) | GI50 (SK-OV-3): 84.1 µM (inactive) | GI50 (SW-620): 39.4 µM (inactive)

Clc1ccc(Nc2nc3ccccc3nc2-c2cccs2)cc1Cl
GI50 (SK-MEL-28): 28.7 µM (inactive) | GI50 (NCI-H460): 22.7 µM (inactive) | GI50 (NCI-H23): 37.8 µM (inactive) | GI50 (RXF 393): 22.6 µM (inactive) | GI50 (COLO 205): 26.1 µM (inactive) | GI50 (SNB-78): 58.2 µM (inactive) | GI50 (HT-29): 25.3 µM (inactive) | GI50 (UACC-257): 34.4 µM (inactive) | GI50 (CCRF-CEM): 27.2 µM (inactive) | GI50 (XF498): 62.1 µM (inactive) | GI50 (U-251): > 10 µM (inactive) | GI50 (DLD-1): 36.7 µM (inactive) | GI50 (SK-MEL-2): > 100 µM (inactive) | GI50 (HOP-62): > 100 µM (inactive) | GI50 (SR): 22.8 µM (inactive) | GI50 (RPMI-8226): 45.2 µM (inactive) | GI50 (LXFL 529): 38.9 µM (inactive) | GI50 (SN12C): 89.9 µM (inactive) | GI50 (RXF 631): 27.8 µM (inactive) | GI50 (UO-31): 34.8 µM (inactive) | GI50 (SNB-19): 36 µM (inactive) | GI50 (SNB-75): 84.9 µM (inactive) | GI50 (Malme-3M): > 100 µM (inactive) | GI50 (OVCAR-5): > 100 µM (inactive) | GI50 (HOP-92): 19.7 µM (inactive) | GI50 (ACHN): 32.1 µM (inactive) | GI50 (SF-295): 40.4 µM (inactive) | GI50 (SF-539): 45.3 µM (inactive) | GI50 (OVCAR-8): 19.7 µM (inactive) | GI50 (M19-MEL): 57.8 µM (inactive) | GI50 (786-0): 35.7 µM (inactive) | GI50 (MOLT-4): 14.8 µM (inactive) | GI50 (EKVX): 69.5 µM (inactive) | GI50 (HCT-15): 10.3 µM | GI50 (HOP-18): 97.5 µM (inactive) | GI50 (HL-60): 12.2 µM (inactive) | GI50 (TK-10): 42.1 µM (inactive) | GI50 (DMS-273): 34 µM (inactive) | GI50 (HCC 2998): 32.1 µM (inactive) | GI50 (KM-20L2): 34.6 µM (inactive) | GI50 (OVCAR-3): > 100 µM (inactive) | GI50 (A549): 29.9 µM (inactive) | GI50 (UACC-62): 38.5 µM (inactive) | GI50 (NCI-H226): 34.1 µM (inactive) | GI50 (HCT-116): 23.4 µM (inactive) | GI50 (SF-268): 36.3 µM (inactive) | GI50 (SK-OV-3): > 100 µM (inactive) | GI50 (SW-620): 85.7 µM (inactive)
